Measured values reported in patent publication US20150118329A1, “METHOD FOR PROMOTING ADIPONECTIN PRODUCTION, PREVENTION AND TREATMENT OF HYPOADIPONECTINEMIA” (AMINO UP CHEMICAL CO., LTD., priority 2011, published 2015).

Each compound was assayed on adipocytes derived from a patient with diabetes, who was severely obese (assay: Screening of functional food product materials (samples 1 to 71) for APR in adipocytes derived from a severely obese diabetic patient). Conditions: concentration in culture medium 10 nM; 48 hour value divided by 96 hour value.
Format: cell-based, human
Protocol: Fat tissues were harvested from remainder tissues removed at the time of surgery of a subject (a patient who was severely obese and had diabetes) who provided informed consent. These fat tissues were treated in the same manner as in Example 1 and used in screening for the adiponectin production-promoting action of functional food product materials (samples 1 to 71).
The samples 1 to 71 (Table 1 and Table 2) were suspended and dissolved in water, heated water (80° C.) or DMSO, and then stirred for 30 minutes, followed by filter filtration […]) for preparation thereof. The sample 25 was prepared by filter filtration (Φ0.45 μm) without carrying out dilution. Further, with regard to the samples 1 to 18, each of the samples was made with water to 1% suspension or aqueous solution, followed by filter filtration (Φ0.45 μm) for preparation thereof. Botanbouhu extract of the samples 58 and 59 was prepared in the same manner as in Example 2. Table 1 and Table 2 show material, solvent and concentration in the culture medium of samples 1 to 71 (samples 6 to 8 “Mixture of three types of peptides” (manufactured by Katano Bussan) is a mixture of peptides derived from dried kelp or konbu, sardine and pearl oyster).
Eight days after DM-2 treatment, the medium was changed to AM-1 medium with each of the samples 1 to 71 being added and 48 hour value and 96 hour value were measured in the same manner as described in Example 3. APR (Adiponectin Production Ratio; adiponectin secretion promoting index) was calculated by dividing the 48 hour value by the 96 hour value. The results are shown in Table 1 and Table 2 and FIG. 4A.

Going from `CCCc1nc2c(C)cc(-c3nc4ccccc4n3C)cc2n1Cc1ccc(-c2ccccc2C(=O)O)cc1` [Sample 61, Telmisartan] to `CCCc1nc(C(C)(C)O)c(C(=O)O)n1Cc1ccc(-c2ccccc2-c2nnn[nH]2)cc1` [Sample 69, Olmesartan], the APR falls from 0.54 to 0.00.

Going from `Cc1c(C(=O)NN2CCCCC2)nn(-c2ccc(Cl)cc2Cl)c1-c1ccc(Cl)cc1` [Sample 62, Rimonabant] to `CC(C)(Oc1ccc(CCNC(=O)c2ccc(Cl)cc2)cc1)C(=O)O` [Sample 65, Bezafibrate], the APR rises from 0.69 to 0.75.

Compared with `CCc1ccc(CCOc2ccc(CC3SC(=O)NC3=O)cc2)nc1` (stereo not shown) [Sample 60, Pioglitazone], `CCC1=C(C)CN(C(=O)NCCc2ccc(S(=O)(=O)NC(=O)N[C@H]3CC[C@H](C)CC3)cc2)C1=O` [Sample 70, Glimepyride] is lower in APR: 0.96 for the first, 0.82 for the second.

First: O=S(=O)(c1cccc2cnccc12)N1CCCNCC1 [Sample 66, Fasudil]
Second: CC(=O)S[C@@H]1CC2=CC(=O)CC[C@]2(C)[C@H]2CC[C@@]3(C)[C@@H](CC[C@@]34CCC(=O)O4)[C@H]12 [Sample 63, Spironolactone]
The APR of the first is lower: 0.58 for the first, 0.60 for the second.

First: COC(=O)[C@@H]1CC2=CC(=O)CC[C@]2(C)[C@@]23O[C@@H]2C[C@@]2(C)[C@@H](CC[C@@]24CCC(=O)O4)[C@H]13 [Sample 64, Eplerenone]
Second: CN(C)C(=N)N=C(N)N [Sample 71, Metformin]
The APR of the first is higher: 0.62 for the first, 0.53 for the second.

Same assay, conditions: concentration in culture medium 0.067%; 48 hour value divided by 96 hour value

`CC1=C(/C=C/C(C)=C/C=C/C(C)=C/C=C/C=C(C)/C=C/C=C(C)/C=C/C2=C(C)C(=O)[C@@H](O)CC2(C)C)C(C)(C)C[C@H](O)C1=O` [Sample 37, Astaxanthin] and Fucoxanthin [Sample 36] are the same in APR: 0.34 for the first, 0.34 for the second.

For Hyaluronic acid [Sample 31], the APR was 0.36.
